Measurements from patent US7538193B2, “NO-modified hemoglobins and uses therefor” (Duke University, priority 1995, dated 2009).

Key:
[1] = system: rabbit thoracic aortic rings, endothelium removed; assay: Oxygen-dependent vessel ring bioassay (Examples 22, 23); format: cell-based
[2] = system: rabbit thoracic aorta rings; assay: Rabbit aortic ring bioassay: vessel tone and ACh (EDRF)-mediated relaxation; format: cell-based; conditions: 1 μM addition; ACh-mediated relaxation of rabbit aortic ring
Excerpt: The effects of native Hb on EDRF responses were compared with Hb preparations in which the thiol or heme centers had been blocked by alkylation or cyanmet derivitization, respectively. All preparations of Hb elicited contractions; however, those of native Hb (in which both SH and metal centers are free for interaction) were most pronounced. […] Relaxations were inhibited to lesser degrees by cyanmet Hb (CN-Hb) (in which hemes were blocked from reaction) and NEM-Hb (in which thiol groups were alkylated by N-ethylmaleimide). […] Direct measurement of SNO-Hb, formed from EDRF under similar conditions, is described in Example 8.
Descending rabbit thoracic aorta were cut into 3 mm rings and mounted on stirrups attached to force transducers (model FT03, Grass Instruments, Quincy, Mass.) for measurement of isometric tone. The details of this bioassay system have been previously described (Stamler, J. S., et al., Proc. Natl. Acad. Sci. USA, 89:444-448 (1992)). Cyanmet Hb was prepared from human HbA according to published protocols (Kilbourn, R. G. et al. Biochem. Biophys. Res. Comm., 199:155-162, (1994)). Alkylation of HbA with N-ethylmaleimide was followed by desalting across G-25 Sephadex to remove excess NEM. Removal of unmodified Hbcysβ93 was achieved by passage through Hg-containing affinity columns. The alkylation of free SH groups was verified using 5,5′-dithio-bis[2-nitrobenzoic acid].

[3] = system: substantia nigra, caudate putamen nucleus and parietal cortex of Sprague-Dawley rats; assay: O2-dependent local cerebral blood flow in rats (Example 25); format: in vivo, rat; conditions: 1 μmol/kg infused over 3 minutes
Method: Adult male Sprague-Dawley rats (290-350 g) were anesthetized with sodium pentobarbital (50 mg/kg IP), intubated and ventilated with a small animal respirator (Edco Scientific Inc., Chapel Hill, N.C.) at a rate and tidal volume to maintain normal values of PaCO2 (35-45 mm Hg; PaCO2=systemic arterial blood carbon dioxide tension). The femoral vein and artery were cannulated for infusion of drugs and for continuous monitoring of systemic blood pressure, respectively. Aliquots of arterial blood (200 μl) were drawn periodically to measure blood gas tensions and pH (Instrumentation Laboratory Co., model 1304 blood gas/pH analyzer). The blood was replaced intravenously with three volumes of normal saline. The inspired O2 concentration was varied using premixed gases balanced with nitrogen. The tissue PO2 was measured continuously with polarographic platinum microelectrodes (50 μm O.D. coated with hydrophobic gas permeable Nafion) implanted stereotaxically in both the right and left hippocampus (AP-3.4 mm, ML+2.2 mm), caudate putamen nucleus and substantia nigra (see coordinates below) (Young, W., Stroke, 11:552-564 (1980); Heiss, W. D. and Traupett, H., Stroke, 12:161-167 (1981); Dewhirst, M. W. et al., Cancer Res., 54:3333-3336 (1994); Kerger, H. et al., Am. J. Physiol., 268:H802-H810 (1995)). The PO2 electrodes were polarized to −0.65V against a distant Ag/AgCl reference located on the tail and the current flow was measured using a low-impedance nA-meter. Regional arterial PO2 was adjusted by changing the inspired O2 concentration and atmospheric pressure.
Polarographic hydrogen (H2)-sensitive microelectrodes were implanted stereotaxically in the substantia nigra (AP −5.3 mm, ML −2.4 mm to the bregma, depth 3.2 mm), caudate putamen nucleus (CPN) (AP +0.8 mm, ML −2.5 mm, depth 5.2 mm) and parietal cortex, for measurement of regional blood flow (Young, W., Stroke, 11:552-564 (1980); Heiss, W. D. and Traupett, H., Stroke, 12:161-167 (1981)). The microelectrodes were made from platinum wire and insulated with epoxy, with the exception of the tip (1 mm) which was coated with Nafion. For placement, the electrodes were mounted on a micromanipulator and the rat's head was immobilized in a Kopf stereotaxic frame. H2-sensitive electrodes were polarized to +400 mV against a distant reference electrode on the tail, and the polarographic current was measured using a low-impedance nA meter during and after the inhalation of hydrogen gas (2.5%) for 1 min. Both the hydrogen clearance curves and voltage for oxygen measurements were made using PC WINDAQ (software, DI-200 AC, Dataq Instruments, Inc., Akron, Ohio). Cerebral blood flow was calculated using the initial slope method (Young, W., Stroke, 11:552-564 (1980); Heiss, W. D. and Traupett, H., Stroke, 12:161-167 (1981)). Regional blood flow responses were monitored for 30 min. prior to and 30 min. following drug administration; hemoglobins were given at time 0.
The cerebrovascular effects of SNO-Hb were measured in adult male Sprague-Dawley rats using O2 and H2 (blood flow)-sensitive microelectrodes that were placed stereotaxically in several regions of the brain as for Example 24.

[4] = system: rat brain (caudatoputamen nucleus); assay: Brain blood flow in rats by H2 clearance (Example 12); format: in vivo; conditions: rats breathing 21% O2; 100 or 1000 nmol/kg
Method: SNO-Hb(FeII)O2, having a SNO/Hb ratio of 2, was prepared (from HbA0) by reaction with S-nitrosothiol. Rats breathing 21% O2 were injected (time 0) with Hbs prepared from HbA0 as indicated in FIG. 10 (open circles, SNO-Hb (100 nmol/kg); filled circles, SNO-Hb (1000 nmol/kg); filled squares, unmodified Hb (1000 nmol/kg)). Three rats were used per experiment. Blood flow was measured in brain using the H2 clearance method; microelectrodes were placed in the brain stereotactically. […] NO group release is promoted by local tissue hypoxia.

In the case of “Hb: native, underivatized human hemoglobin A purified from red cells”, the “effect on vessel tone” value ([1]; 1 μM, rings contracted with phenylephrine under hypoxic conditions (6-7 torr)) is reported as “progressive increases in vessel tone”, the “effect of 10 μM glutathione on the response” value ([1]; 10 μM glutathione in bioassay chambers) is reported as “no effect” and the “effect on vessel tension” value ([1]; 95% O2 or 21% O2 (R-structure)) is reported as “contract blood vessels”. The “effect on vessel tension” value ([1]; <1% O2 (~6 torr), T-structure) was “strongly contracts blood vessels”, the “% ACh RELAXATION” value [2] was 31.9 ± 6.9 (n = 7) % and the “local cerebral blood flow” value ([3]; 21% O2) was “decreased local blood flow”. The “local cerebral blood flow” value ([3]; 100% O2 + 3 ATA) was “tended to decrease cerebral flow to similar extents”, the “local cerebral blood flow” value ([3]; 100% O2) was “preserved” and the “blood flow to the brain” value [4] was “decreases blood flow”.
